These results are taken from patent US9796711B2, “Substituted pyrazolo[3,4-b]pyridin-6-carboxylic acids and method of use” (AbbVie S.àr.l., priority 2015, dated 2017).

By EC50 is commonly meant the concentration needed to bring the measured effect to its halfway point.

The target of assay [1] is T1, ΔF508-CFTR (Homo sapiens, UniProt P13569, DEL508-508).
T1 construct: host or cells: CFBE41o-, doxycycline-inducible
Put plainly: CFTR cell surface levels using HRP-tagged ΔF508-CFTR expressing CFBE cells, in the presence of a co-corrector. In kind it is cell-based. As to conditions: HRP-tagged ΔF508-CFTR expressing CFBE cells, in the presence of 3 μM co-corrector; for EC50: read-out: EC50. An outline of the steps:
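Cells were seeded with 0.5 μg/mL doxycycline and held 68 h at 37 °C. Test compounds plus 3 μM co-corrector (final 0.1% DMSO) were then added for 20 h at 33 °C. Washed cells received HRP substrate, and luminescence was normalized between DMSO and 3 μM co-corrector controls.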

The target in assay [2] is T1, ΔF508-CFTR. Put plainly: CFTR cell surface levels using HRP-tagged ΔF508-CFTR expressing CFBE cells, intrinsic corrector capacity. It counts as cell-based. The following applies: for EC50: read-out: EC50. The gist of the method: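 Here the cells express ΔF508-CFTR with horseradish peroxidase inserted in extracellular loop 4, so only rescued channel at the surface gives luminescent signal. Compounds act on their own, 20 h at the reduced temperature of 33 °C; values are percent activity relative to DMSO and a 3 μM corrector.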

The mark [3] stands for this setting: HRP-tagged ΔF508-CFTR CFBE cells, compound alone (intrinsic corrector capacity), 20 hours at 33° C.
Where [4] appears, read: HRP-tagged ΔF508-CFTR expressing CFBE cells, intrinsic corrector capacity (no co-corrector), 33° C., 20 hours.
[5] abbreviates: HRP-tagged ΔF508-CFTR CFBE41o- cells, compounds alone (intrinsic corrector capacity), 20 hours at 33° C., positive control 3 μM corrector.
Where [6] appears, read: HRP-tagged ΔF508-CFTR CFBE41o- cells, compounds alone (intrinsic corrector capacity), 20 hours at 33° C.

T1 sequence (P13569 with tags, fused parts or gaps DEL508-508): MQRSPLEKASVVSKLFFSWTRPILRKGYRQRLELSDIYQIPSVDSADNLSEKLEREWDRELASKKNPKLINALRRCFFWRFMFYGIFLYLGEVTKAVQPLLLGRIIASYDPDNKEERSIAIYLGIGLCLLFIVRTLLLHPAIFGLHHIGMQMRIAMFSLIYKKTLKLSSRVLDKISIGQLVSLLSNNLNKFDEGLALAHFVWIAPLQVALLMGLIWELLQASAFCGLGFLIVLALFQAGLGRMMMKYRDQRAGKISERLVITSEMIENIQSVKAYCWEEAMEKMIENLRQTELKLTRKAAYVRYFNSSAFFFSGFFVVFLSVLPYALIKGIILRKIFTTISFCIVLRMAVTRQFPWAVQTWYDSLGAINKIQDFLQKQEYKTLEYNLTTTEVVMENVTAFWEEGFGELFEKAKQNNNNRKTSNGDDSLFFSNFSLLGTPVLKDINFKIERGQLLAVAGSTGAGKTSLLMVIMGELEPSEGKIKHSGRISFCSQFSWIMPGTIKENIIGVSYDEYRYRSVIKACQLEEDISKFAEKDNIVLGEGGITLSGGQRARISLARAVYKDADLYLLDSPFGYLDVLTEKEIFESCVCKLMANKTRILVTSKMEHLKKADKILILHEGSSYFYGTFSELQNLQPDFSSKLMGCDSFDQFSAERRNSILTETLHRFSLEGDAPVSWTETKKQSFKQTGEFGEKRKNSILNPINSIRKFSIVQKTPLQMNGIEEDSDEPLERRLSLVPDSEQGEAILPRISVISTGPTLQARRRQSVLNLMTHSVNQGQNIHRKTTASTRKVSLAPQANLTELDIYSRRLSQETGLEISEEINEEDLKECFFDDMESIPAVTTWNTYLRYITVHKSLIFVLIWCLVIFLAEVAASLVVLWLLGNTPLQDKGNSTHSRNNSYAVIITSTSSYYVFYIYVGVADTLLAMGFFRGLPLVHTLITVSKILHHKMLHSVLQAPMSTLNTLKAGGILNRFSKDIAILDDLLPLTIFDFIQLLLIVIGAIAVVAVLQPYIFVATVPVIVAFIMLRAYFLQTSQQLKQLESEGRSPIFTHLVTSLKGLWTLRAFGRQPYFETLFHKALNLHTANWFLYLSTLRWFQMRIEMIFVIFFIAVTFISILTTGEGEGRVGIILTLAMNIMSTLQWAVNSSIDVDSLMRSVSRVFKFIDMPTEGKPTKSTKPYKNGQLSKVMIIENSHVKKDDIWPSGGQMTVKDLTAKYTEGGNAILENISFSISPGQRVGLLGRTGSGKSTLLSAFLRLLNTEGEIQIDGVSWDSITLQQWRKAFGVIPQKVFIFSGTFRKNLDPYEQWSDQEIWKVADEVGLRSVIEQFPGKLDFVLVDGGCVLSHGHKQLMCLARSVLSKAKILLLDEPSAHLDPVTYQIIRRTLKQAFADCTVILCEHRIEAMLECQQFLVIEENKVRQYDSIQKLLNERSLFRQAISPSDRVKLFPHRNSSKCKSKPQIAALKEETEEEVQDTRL

As for `O=C(O)c1cc(N2CCC(N3CCOCC3)CC2)c2c(C3CCC3)nn(-c3ccc(OC(F)F)cc3)c2n1` [compound 914, 3-cyclobutyl-1-[4-(difluoromethoxy)phenyl]-4-[4-(morpholin-4-yl)piperidin-1-yl]-1H-pyrazolo[3,4-b]pyridine-6-carboxylic acid], on ΔF508-CFTR [1], the “% Activation” value came to 429.25% and the EC50 was determined as 173 nM. In addition, on ΔF508-CFTR [2] (setting [3]), the “% Activation” value amounted to 228.2% and the concentration for a half-maximal effect (EC50) amounted to 546 nM.

Consider `O=C(O)c1cc(N2CCC([C@H](F)CO)CC2)c2c(C3CCC3)nn(-c3ccccc3)c2n1` [compound 457, 3-cyclobutyl-4-{4-[(1S)-1-fluoro-2-hydroxyethyl]piperidin-1-yl}-1-phenyl-1H-pyrazolo[3,4-b]pyridine-6-carboxylic acid], for which the “% Activation” value at ΔF508-CFTR [1] turned out to be 430.85%; at ΔF508-CFTR [2] (setting [4]), 240.3%. Also, the EC50 is 392 nM on ΔF508-CFTR [1] and 607 nM on ΔF508-CFTR [2] (setting [4]).

Take `CC(C)c1nn(-c2ccc(F)cc2)c2nc(C(=O)O)cc(N3CCN(C(C)(C)C)CC3)c12` [compound 788, 4-(4-tert-butylpiperazin-1-yl)-1-(4-fluorophenyl)-3-(propan-2-yl)-1H-pyrazolo[3,4-b]pyridine-6-carboxylic acid]: at ΔF508-CFTR [1], the “% Activation” value was determined as 329.4% and the EC50 was found to be 1670 nM. On ΔF508-CFTR [2] (setting [4]), the “% Activation” value is on record as 115.7% and the EC50 was determined as 1670 nM.

For `Cc1cccc(-n2nc(C(C)C)c3c(N4CC(F)C4)cc(C(=O)O)nc32)c1` [compound 174, 4-(3-fluoroazetidin-1-yl)-1-(3-methylphenyl)-3-(propan-2-yl)-1H-pyrazolo[3,4-b]pyridine-6-carboxylic acid], the “% Activation” value on ΔF508-CFTR [1] was determined as 260.12%; on ΔF508-CFTR [2] (setting [5]) it was 90.21%. Besides, the EC50 was 2540 nM on ΔF508-CFTR [1] and 3240 nM at ΔF508-CFTR [2] (setting [6]).

As to `O=C(O)c1cc(OCCN2CCCCC2)c2c(C3CCC3)nn(-c3ccccc3)c2n1` [compound 639, 3-cyclobutyl-1-phenyl-4-[2-(piperidin-1-yl)ethoxy]-1H-pyrazolo[3,4-b]pyridine-6-carboxylic acid], at ΔF508-CFTR [1], the “% Activation” value stood at 261.7% and the EC50 worked out at 1670 nM. Besides, on ΔF508-CFTR [2] (setting [4]), the “% Activation” value amounted to 96.54% and the concentration giving a half-maximal response (EC50) amounted to 2210 nM.

As for `CC(C)c1nn(-c2cccc(N3CCOCC3)c2)c2nc(C(=O)O)cc(-c3ccc(N(C)C4CCOCC4)nc3)c12` [compound 187, 4-{6-[methyl(oxan-4-yl)amino]pyridin-3-yl}-1-[3-(morpholin-4-yl)phenyl]-3-(propan-2-yl)-1H-pyrazolo[3,4-b]pyridine-6-carboxylic acid], the “% Activation” value at ΔF508-CFTR [1] was 522%; at ΔF508-CFTR [2] (setting [5]), 367.4%. For the same compound, the 50% effective concentration (EC50) on ΔF508-CFTR [1] came to 565 nM; on ΔF508-CFTR [2] (setting [6]), 674 nM.

Regarding `CC(C)Oc1nn(C2CCCCC2)c2nc(C(=O)O)cc(-c3ccc(N4CCN(C)CC4)cc3)c12` [compound 883, 1-cyclohexyl-4-[4-(4-methylpiperazin-1-yl)phenyl]-3-[(propan-2-yl)oxy]-1H-pyrazolo[3,4-b]pyridine-6-carboxylic acid], at ΔF508-CFTR [1], the “% Activation” value was 380.9% and the half-maximal effective concentration (EC50) came to 238 nM. For the same compound, at ΔF508-CFTR [2] (setting [4]), the “% Activation” value turned out to be 160.6% and the half-maximal effective concentration (EC50) is 330 nM.

Turning to `Cc1nn(-c2ccccc2)c2nc(C(=O)O)cc(-c3cnc(N4CCOCC4)nc3)c12` [compound 15, 3-methyl-4-[2-(morpholin-4-yl)pyrimidin-5-yl]-1-phenyl-1H-pyrazolo[3,4-b]pyridine-6-carboxylic acid], the “% Activation” value on ΔF508-CFTR [1] is 282.5%; at ΔF508-CFTR [2] (setting [5]), 98.68%. In addition, the EC50 on ΔF508-CFTR [1] amounted to 2600 nM; on ΔF508-CFTR [2] (setting [6]), 2670 nM.

Turning to `CC(C)Oc1nn(C2CCCCC2)c2nc(C(=O)O)cc(-c3ccc(CN4CCN(C5CC5)CC4)cc3)c12` [compound 884, 1-cyclohexyl-4-{4-[(4-cyclopropylpiperazin-1-yl)methyl]phenyl}-3-[(propan-2-yl)oxy]-1H-pyrazolo[3,4-b]pyridine-6-carboxylic acid], at ΔF508-CFTR [1], the “% Activation” value was 377.6% and the concentration for a half-maximal effect (EC50) is 214 nM. For the same compound, on ΔF508-CFTR [2] (setting [4]), the “% Activation” value turned out to be 140.6% and the EC50 is 298 nM.
